Source: US20130096170A1 (priority 2011, published 2013)

Test: clinical
Conditions: human, plasma, intravenous

## Cc1cccc([C@H](C)c2cnc[nH]2)c1C [dexmedetomidine]
CL, Geo. Mean of individual Bayesian estimates, 1 month-<6 months (n = 14)
  clearance: 116 mL/min
CL, Geo. Mean of individual Bayesian estimates, 2 y-<6 y (n = 26)
  clearance: 265 mL/min
CL, Geo. Mean of individual Bayesian estimates, 6 months-<12 months (n = 16)
  clearance: 136 mL/min
CL, Geo. Mean of individual Bayesian estimates, 6 y-<17 y (n = 29)
  clearance: 408 mL/min
CL, Geo. Mean of individual Bayesian estimates, 12 months-<24 months (n = 13)
  clearance: 179 mL/min
CL, Geo. Mean of individual Bayesian estimates, 28 weeks GA-<1 month (n = 28)
  clearance: 38 mL/min
CL, elimination clearance (population mean), final population PK model, Examples 5, 3, 1 and 7
  clearance: 178 mL/min
Volume of Distribution, Geo. Mean of individual Bayesian estimates, 1 month-<6 months (n = 14)
  Vd: 17.3 L
Volume of Distribution, Geo. Mean of individual Bayesian estimates, 2 y-<6 y (n = 26)
  Vd: 33.7 L
Volume of Distribution, Geo. Mean of individual Bayesian estimates, 6 months-<12 months (n = 16)
  Vd: 21.2 L
Volume of Distribution, Geo. Mean of individual Bayesian estimates, 6 y-<17 y (n = 29)
  Vd: 51.6 L
Volume of Distribution, Geo. Mean of individual Bayesian estimates, 12 months-<24 months (n = 13)
  Vd: 23.9 L
Volume of Distribution, Geo. Mean of individual Bayesian estimates, 28 weeks GA-<1 month (n = 28)
  Vd: 14.1 L
Weight-Adjusted CL, Geometric Mean (individual Bayesian estimates), Including Additional 11 Subjects, 1 month-<6 months (n = 14)
  clearance: 20.2 mL/min/kg
Weight-Adjusted CL, Geometric Mean (individual Bayesian estimates), Including Additional 11 Subjects, 2 y-<6 y (n = 26)
  clearance: 18.5 mL/min/kg
Weight-Adjusted CL, Geometric Mean (individual Bayesian estimates), Including Additional 11 Subjects, 6 months-<12 months (n = 16)
  clearance: 18.5 mL/min/kg
Weight-Adjusted CL, Geometric Mean (individual Bayesian estimates), Including Additional 11 Subjects, 6 y-<17 y (n = 29)
  clearance: 13.3 mL/min/kg
Weight-Adjusted CL, Geometric Mean (individual Bayesian estimates), Including Additional 11 Subjects, 12 months-<24 months (n = 13)
  clearance: 17.7 mL/min/kg
Weight-Adjusted CL, Geometric Mean (individual Bayesian estimates), Including Additional 11 Subjects, 28 weeks GA-<1 month (n = 28)
  clearance: 15.5 mL/min/kg
Weight-Adjusted Vd, Geometric Mean (individual Bayesian estimates), Including Additional 11 Subjects, 1 month-<6 months (n = 14)
  Vd: 3.02 L/kg
Weight-Adjusted Vd, Geometric Mean (individual Bayesian estimates), Including Additional 11 Subjects, 2 y-<6 y (n = 26)
  Vd: 2.35 L/kg
Weight-Adjusted Vd, Geometric Mean (individual Bayesian estimates), Including Additional 11 Subjects, 6 months-<12 months (n = 16)
  Vd: 2.89 L/kg
Weight-Adjusted Vd, Geometric Mean (individual Bayesian estimates), Including Additional 11 Subjects, 6 y-<17 y (n = 29)
  Vd: 1.68 L/kg
Weight-Adjusted Vd, Geometric Mean (individual Bayesian estimates), Including Additional 11 Subjects, 12 months-<24 months (n = 13)
  Vd: 2.35 L/kg
Weight-Adjusted Vd, Geometric Mean (individual Bayesian estimates), Including Additional 11 Subjects, 28 weeks GA-<1 month (n = 28)
  Vd: 5.74 L/kg
